According to publication PMC12736120, “First-in-Human Phase I Clinical Trial of SLC-391, a Novel and Selective AXL Inhibitor, in Patients with Advanced Solid Tumours” (Pharmaceuticals, 2025):

How the values were obtained:
[1] = system: multiple solid tumour and haematological tumour models; set-up: method as in PMID 33786587, doi:10.1158/1538-7445.AM2014-2716, doi:10.1158/1538-7445.AM2014-1746, doi:10.1158/1538-7445.AM2015-5393, doi:10.1158/1538-7445.AM2017-4196; conditions: alone or in combination with chemotherapy or immune checkpoint blockade; models including lung cancer, colon cancer, CML, AML; cited from earlier work
advanced solid tumours = test: Preliminary efficacy, disease assessment by RECIST 1.1 / mRECIST; assay type: in vivo, human; conditions: for best percent change in target lesion diameter (decrease): one subject
Procedure: Disease assessments were performed according to RECIST 1.1 [20, 21] and included imaging and physical examination as appropriate for disease type and location. Disease assessments were completed at screening (within 30 days of C1D1) and every 3 cycles (±7 days) relative to C1D1 until objective disease progression, study drug discontinuation, or withdrawal of informed consent.

AXL = conditions: stated in the Introduction, no reference given; read-out: IC50 against AXL; cited from earlier work
TYRO3 = conditions: stated in the Introduction, no reference given; read-out: IC50 against TYRO3; cited from earlier work

SMILES: Nc1ncc(-c2cnn(C3CCNCC3)c2)cc1-c1nnc(CC2CC2)o1 [SLC-391, 3-(5-[cyclopropylmethyl]-1,3,4-oxadiazol-2-yl)-5-(1-[piperidin-4-yl]-1H-pyrazol-4-yl)-pyridin-2-amine]
- tumour growth inhibition [1]: results in tumour growth inhibition
- rate of stable disease (advanced solid tumours; 150 mg BID (3/6)): 50.0%
- best overall response (BOR) of stable disease (advanced solid tumours; NSCLC): 4/16
- subjects with stable disease (advanced solid tumours; RECIST 1.1 or modified RECIST (mesothelioma)): 12 of 35 subjects
- clinical benefit rate (advanced solid tumours; all subjects (N = 35), monotherapy): 34.3%
- best overall response (BOR) of stable disease (advanced solid tumours; appendix adenocarcinoma): 1/1
- best overall response (BOR) of stable disease (advanced solid tumours; head and neck cancer): 1/1
- best overall response (BOR) of stable disease (advanced solid tumours; mammary adenocarcinoma): 1/1
- best overall response (BOR) of stable disease (advanced solid tumours; melanoma): 1/1
- best overall response (BOR) of stable disease (advanced solid tumours; mesothelioma): 4/4
- longest duration of stable disease (advanced solid tumours; monotherapy): 318 days
- patients with stable disease for more than half a year (advanced solid tumours; monotherapy, all stage IV, pretreated): six
- best percent change in target lesion diameter (decrease) (advanced solid tumours; 50 mg QD, at cycle 7): 26.7%
- best percent change in target lesion diameter (decrease) (advanced solid tumours; 110 mg BID, on day 275): 22.2%
- best percent change in target lesion diameter (decrease) (advanced solid tumours; 150 mg BID, at the end of treatment visit): 8.9%
- best percent change in target lesion diameter (decrease) (advanced solid tumours; 150 mg QD, at cycle 7): 10.7%
- IC50 (AXL): 9.6 nM
- IC50 (TYRO3): 42.3 nM
